Assay results taken from patent US12157741B2, “Macrocyclic inhibitors of DYRK1A” (DANA-FARBER CANCER INSTITUTE, INC., priority 2018, dated 2024).

Tests used:
various enzymes [1] = target: various enzymes (Homo sapiens, UniProt P00533, DEL747-749/A750P); settings: EGFR(L747-E749del, A750P); 1 uM
Protocol: (§2) Ambit profiling from Eurofins (formerly Discoverx) was conducted in accordance with the manufacturer's instructions.

various enzymes [2] = target: various enzymes (Homo sapiens, UniProt P30530); type: binding; settings: compound 1 uM
Protocol: (§1) Ambit profiling was conducted in accordance with the manufacturer's instructions.

various enzymes [3] = target: various enzymes (Homo sapiens, UniProt Q13627); type: binding; settings: compound 1 uM
Protocol: as §1

various enzymes [4] = target: various enzymes (Homo sapiens, UniProt Q5VT25); type: binding; settings: compound 1 uM
Protocol: as §1

various enzymes [5] = target: various enzymes (Homo sapiens, UniProt Q8TDC3); type: binding; settings: compound 1 uM
Protocol: as §1

various enzymes [6] = target: various enzymes (Homo sapiens, UniProt Q9NQU5); type: binding; settings: compound 1 uM
Protocol: as §1

various enzymes [7] = target: various enzymes (Homo sapiens, UniProt Q9NYY3); type: binding; settings: compound 1 uM
Protocol: as §1

various enzymes [8] = type: binding; settings: statement in words, compared with compound 48
Protocol: as §1

various enzymes [9] = target: various enzymes (Homo sapiens, UniProt P00533, DELINS747-751S); type: binding; parameters: other: EGFR(L747-T751del, Sins); 1 uM; other: compound 1 uM; settings: compound 1 uM
Protocol: as §1

LRRK2 (G2019S) = target: T1, LRRK2 (G2019S) (Homo sapiens, UniProt Q5S007, G2019S); test: LRRK2(G2019S) enzyme assay (Promega ADP-Glo Kinase assay); type: biochemical; settings: 25 μM ATP, read-out: Enzyme activity against LRRK2 (G2019S)
T1 construct: purchased SignalChem L10-12GG
Protocol: All LRRK2 kinase inhibition assays were conducted by using Promega™ ADP-Glo™ Kinase assay systems (Cat No. V4475).
For LRRK G2019S, each compound mixed with 0.2 μg/μL of substrate, 25 μM ATP, 16 ng of LRRK2 G2019S enzyme (SignalChem, L10-12GG). All samples were diluted with kinase reaction buffer (40 mmol/L TrisHCl, 10 mmol/L MgCl2, and 0.1 μg/μL BSA, 0.05 mM DTT). After a 2 h reaction at 25° C., ADP-Glo™ (Promega™, V9102) reagent was added and incubated at rt for 40 min. Finally, kinase detection reagent (Promega™, Cat No. V6930) was added and reacted at 25° C. for 10 min. The luminescence signals were detected by using Synergy™ Neo2 microplate reader (BioTek®). Compound inhibition curve was fitted using GraphPad Prism 8.0 software.

various enzymes [10] = target: various enzymes (Homo sapiens, UniProt O00141); test: Enzyme IC50 of compound 48 (Table 3); type: biochemical; settings: SGK
various enzymes [11] = target: T2, various enzymes (Homo sapiens, UniProt P36888, D835V, form not given); test: Enzyme IC50 of compound 48 (Table 3); type: biochemical; settings: read-out: Enzyme IC50; FLT3(ITD, D835V)
T2 construct: Enzyme IC50; other: FLT3(ITD, D835V)

various enzymes [12] = target: various enzymes (Homo sapiens, UniProt P36888, D835V, form not given)
various enzymes [13] = target: various enzymes (Homo sapiens, UniProt P36888, F691L, form not given)
various enzymes [14] = target: T3, various enzymes (Homo sapiens, UniProt Q6P2M8); settings: CAMK1B; 1 uM
Protocol: as §2

various enzymes [15] = target: various enzymes (Homo sapiens, UniProt Q9Y2I7); settings: PIKFYVE; 1 uM
Protocol: as §2

various enzymes [16] = target: T4, various enzymes (Homo sapiens, UniProt P45985); test: Enzyme IC50 of compound 48 (Table 3); type: biochemical; parameters: Enzyme IC50; other: MEK4; settings: MEK4
T4 sequence (P45985 1-399): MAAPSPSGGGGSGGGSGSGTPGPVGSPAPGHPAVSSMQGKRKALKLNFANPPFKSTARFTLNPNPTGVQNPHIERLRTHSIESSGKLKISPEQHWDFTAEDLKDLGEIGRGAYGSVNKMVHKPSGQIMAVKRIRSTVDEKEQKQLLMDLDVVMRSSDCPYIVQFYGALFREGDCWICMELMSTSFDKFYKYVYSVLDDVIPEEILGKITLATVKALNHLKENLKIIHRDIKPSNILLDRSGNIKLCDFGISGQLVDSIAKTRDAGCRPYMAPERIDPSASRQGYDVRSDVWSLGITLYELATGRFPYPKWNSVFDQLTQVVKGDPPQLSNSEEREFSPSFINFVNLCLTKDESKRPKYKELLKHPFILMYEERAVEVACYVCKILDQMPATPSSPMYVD

various enzymes [17] = target: various enzymes (Homo sapiens, UniProt Q9UKE5); test: Enzyme IC50 of compound 48 (Table 3); type: biochemical; parameters: Enzyme IC50; other: TNIK; settings: TNIK
various enzymes [18] = target: T3, various enzymes; test: Enzyme IC50 of compound 48 (Table 3); type: biochemical; parameters: Enzyme IC50; other: CAMK1B; settings: CAMK1B
DYRK1B = target: T5, DYRK1B (Homo sapiens, UniProt Q9Y463); test: Invitrogen Zlyte assay, DYRK1B; type: biochemical
T5 construct: purchased Invitrogen (assay run by the vendor)

[19] = tested on: various enzymes (Homo sapiens); type: binding; settings: compound 1 uM
Protocol: as §1

various enzymes [20] = target: various enzymes (Homo sapiens, UniProt P09769); type: binding; settings: compound 1 uM
Protocol: as §1

T3 sequence (Q6P2M8 whole entry): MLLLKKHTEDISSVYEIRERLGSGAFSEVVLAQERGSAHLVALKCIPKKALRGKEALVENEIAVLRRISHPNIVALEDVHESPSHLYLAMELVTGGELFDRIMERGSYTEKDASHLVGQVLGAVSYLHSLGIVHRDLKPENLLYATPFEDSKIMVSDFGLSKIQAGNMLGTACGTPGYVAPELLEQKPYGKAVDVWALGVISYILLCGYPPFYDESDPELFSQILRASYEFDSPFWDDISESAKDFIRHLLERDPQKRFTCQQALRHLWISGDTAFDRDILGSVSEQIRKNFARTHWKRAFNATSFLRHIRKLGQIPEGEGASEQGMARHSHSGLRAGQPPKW
Sequence of various enzymes (Homo sapiens, UniProt Q9NYY3) (Q9NYY3 whole entry): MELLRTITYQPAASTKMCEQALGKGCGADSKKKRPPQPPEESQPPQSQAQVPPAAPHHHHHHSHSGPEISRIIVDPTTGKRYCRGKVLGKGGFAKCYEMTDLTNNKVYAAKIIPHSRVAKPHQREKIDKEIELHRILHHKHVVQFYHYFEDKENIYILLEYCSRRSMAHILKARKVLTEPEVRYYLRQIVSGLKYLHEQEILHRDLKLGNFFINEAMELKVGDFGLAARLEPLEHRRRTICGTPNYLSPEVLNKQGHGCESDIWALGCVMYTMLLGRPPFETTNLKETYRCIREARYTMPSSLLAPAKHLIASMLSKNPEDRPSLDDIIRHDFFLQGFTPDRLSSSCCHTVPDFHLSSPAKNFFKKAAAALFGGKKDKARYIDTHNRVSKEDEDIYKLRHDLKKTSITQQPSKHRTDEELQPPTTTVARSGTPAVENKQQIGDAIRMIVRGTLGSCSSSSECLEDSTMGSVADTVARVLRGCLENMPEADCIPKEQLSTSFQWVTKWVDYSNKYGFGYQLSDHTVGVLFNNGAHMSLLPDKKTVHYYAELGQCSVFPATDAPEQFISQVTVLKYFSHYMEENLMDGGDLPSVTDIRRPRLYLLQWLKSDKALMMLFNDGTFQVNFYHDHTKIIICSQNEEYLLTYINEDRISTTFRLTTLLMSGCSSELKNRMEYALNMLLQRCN
Sequence of various enzymes (Homo sapiens, UniProt Q5VT25) (Q5VT25 whole entry): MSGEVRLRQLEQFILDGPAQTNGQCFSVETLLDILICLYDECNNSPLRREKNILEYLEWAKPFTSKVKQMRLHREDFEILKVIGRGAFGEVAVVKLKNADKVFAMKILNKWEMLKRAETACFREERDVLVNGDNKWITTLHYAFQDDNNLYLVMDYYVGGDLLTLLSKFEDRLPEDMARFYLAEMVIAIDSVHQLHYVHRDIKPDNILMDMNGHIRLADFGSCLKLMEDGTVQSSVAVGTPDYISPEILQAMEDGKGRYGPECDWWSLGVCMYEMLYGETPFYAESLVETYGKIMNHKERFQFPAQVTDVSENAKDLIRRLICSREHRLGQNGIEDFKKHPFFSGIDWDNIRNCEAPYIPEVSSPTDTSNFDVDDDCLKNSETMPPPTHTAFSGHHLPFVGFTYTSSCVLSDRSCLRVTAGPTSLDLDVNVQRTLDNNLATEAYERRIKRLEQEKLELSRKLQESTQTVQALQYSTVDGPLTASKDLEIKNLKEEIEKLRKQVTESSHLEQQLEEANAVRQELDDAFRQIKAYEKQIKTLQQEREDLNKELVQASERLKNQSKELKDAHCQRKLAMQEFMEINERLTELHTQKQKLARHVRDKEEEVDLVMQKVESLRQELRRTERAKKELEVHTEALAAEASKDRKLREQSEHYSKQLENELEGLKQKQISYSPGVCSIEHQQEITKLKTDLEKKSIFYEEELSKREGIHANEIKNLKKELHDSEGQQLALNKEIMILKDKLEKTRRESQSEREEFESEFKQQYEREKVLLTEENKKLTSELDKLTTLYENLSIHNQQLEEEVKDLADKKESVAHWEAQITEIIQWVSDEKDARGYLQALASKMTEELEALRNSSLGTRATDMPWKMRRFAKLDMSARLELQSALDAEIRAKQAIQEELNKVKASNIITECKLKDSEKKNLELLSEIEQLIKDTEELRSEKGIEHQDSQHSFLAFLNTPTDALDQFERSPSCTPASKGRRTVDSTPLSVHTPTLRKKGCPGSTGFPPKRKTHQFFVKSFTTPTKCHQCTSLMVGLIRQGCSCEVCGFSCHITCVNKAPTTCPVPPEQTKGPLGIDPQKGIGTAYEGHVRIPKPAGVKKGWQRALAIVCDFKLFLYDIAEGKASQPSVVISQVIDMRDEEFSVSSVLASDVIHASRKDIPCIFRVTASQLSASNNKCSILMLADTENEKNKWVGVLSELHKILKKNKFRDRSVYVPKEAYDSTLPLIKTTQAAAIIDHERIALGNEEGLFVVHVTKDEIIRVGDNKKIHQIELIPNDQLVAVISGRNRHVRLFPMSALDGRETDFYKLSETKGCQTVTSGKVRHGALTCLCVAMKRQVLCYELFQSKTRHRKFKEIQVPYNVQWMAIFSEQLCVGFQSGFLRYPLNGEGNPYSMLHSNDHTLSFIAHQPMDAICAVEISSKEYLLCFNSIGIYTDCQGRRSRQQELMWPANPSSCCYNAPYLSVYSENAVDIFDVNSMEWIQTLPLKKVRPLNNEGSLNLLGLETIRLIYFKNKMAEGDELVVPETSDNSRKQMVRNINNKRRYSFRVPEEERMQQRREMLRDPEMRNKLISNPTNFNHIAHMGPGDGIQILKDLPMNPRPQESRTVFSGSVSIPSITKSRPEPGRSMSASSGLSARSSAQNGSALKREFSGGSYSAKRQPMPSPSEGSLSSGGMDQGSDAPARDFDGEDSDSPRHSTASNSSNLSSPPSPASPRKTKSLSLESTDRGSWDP
Sequence of various enzymes (Homo sapiens, UniProt Q8TDC3) (Q8TDC3 whole entry): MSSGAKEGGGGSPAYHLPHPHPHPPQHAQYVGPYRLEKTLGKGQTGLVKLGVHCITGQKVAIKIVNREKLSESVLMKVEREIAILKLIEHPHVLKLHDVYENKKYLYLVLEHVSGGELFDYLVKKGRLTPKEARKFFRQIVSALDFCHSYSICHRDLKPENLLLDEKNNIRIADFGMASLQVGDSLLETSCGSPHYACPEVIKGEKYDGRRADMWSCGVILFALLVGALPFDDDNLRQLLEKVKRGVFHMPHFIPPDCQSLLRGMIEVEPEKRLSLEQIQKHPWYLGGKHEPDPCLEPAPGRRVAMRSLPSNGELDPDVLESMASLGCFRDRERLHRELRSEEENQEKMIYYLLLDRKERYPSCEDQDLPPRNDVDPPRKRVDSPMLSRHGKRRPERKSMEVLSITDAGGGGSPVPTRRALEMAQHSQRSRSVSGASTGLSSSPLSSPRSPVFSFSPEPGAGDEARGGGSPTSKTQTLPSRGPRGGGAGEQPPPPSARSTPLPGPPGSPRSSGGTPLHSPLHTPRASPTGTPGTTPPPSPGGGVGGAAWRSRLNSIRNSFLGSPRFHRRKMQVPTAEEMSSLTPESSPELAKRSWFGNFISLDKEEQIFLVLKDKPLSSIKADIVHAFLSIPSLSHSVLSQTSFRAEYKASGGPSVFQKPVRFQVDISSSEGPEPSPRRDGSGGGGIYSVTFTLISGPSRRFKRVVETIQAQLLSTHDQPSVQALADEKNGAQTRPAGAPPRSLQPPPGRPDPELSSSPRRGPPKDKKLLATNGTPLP
Sequence of various enzymes (Homo sapiens, UniProt P09769) (P09769 whole entry): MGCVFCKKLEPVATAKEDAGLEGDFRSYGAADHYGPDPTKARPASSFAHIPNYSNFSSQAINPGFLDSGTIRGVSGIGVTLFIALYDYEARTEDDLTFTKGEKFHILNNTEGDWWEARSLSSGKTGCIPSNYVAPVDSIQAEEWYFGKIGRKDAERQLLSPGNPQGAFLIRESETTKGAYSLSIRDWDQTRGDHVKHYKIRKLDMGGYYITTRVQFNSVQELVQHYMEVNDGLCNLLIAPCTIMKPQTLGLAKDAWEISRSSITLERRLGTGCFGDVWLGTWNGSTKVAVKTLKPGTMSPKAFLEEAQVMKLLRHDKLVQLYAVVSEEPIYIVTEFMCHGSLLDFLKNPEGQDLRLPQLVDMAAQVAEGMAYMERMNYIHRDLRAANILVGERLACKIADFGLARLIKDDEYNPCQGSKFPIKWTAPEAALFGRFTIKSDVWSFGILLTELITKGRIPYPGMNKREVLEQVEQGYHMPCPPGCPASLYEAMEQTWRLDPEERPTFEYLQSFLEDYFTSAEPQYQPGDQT
Sequence of various enzymes (Homo sapiens, UniProt P30530) (P30530 26-894): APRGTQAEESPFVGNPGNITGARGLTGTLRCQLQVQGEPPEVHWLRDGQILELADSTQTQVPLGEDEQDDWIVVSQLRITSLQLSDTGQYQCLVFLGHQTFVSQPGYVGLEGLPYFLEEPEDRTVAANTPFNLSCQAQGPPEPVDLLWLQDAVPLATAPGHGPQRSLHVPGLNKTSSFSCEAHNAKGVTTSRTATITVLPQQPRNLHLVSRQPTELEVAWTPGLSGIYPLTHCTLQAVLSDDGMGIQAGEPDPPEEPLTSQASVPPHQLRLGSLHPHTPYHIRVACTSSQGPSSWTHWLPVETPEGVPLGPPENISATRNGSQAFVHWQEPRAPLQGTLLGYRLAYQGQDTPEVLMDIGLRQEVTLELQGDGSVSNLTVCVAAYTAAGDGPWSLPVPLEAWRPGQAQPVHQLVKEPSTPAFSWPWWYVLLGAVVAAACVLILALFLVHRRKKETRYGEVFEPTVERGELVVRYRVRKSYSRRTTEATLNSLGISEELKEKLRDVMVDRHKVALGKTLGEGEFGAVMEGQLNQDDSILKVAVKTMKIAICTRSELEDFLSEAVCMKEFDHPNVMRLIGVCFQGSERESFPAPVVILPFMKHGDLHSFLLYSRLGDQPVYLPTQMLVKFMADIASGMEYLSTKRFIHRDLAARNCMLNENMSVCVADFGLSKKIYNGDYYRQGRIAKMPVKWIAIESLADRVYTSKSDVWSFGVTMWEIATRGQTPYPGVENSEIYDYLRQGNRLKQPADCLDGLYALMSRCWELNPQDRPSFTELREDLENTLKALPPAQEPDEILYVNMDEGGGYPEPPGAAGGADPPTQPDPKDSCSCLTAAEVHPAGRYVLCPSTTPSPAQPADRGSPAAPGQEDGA

CN1Cc2nn(C)cc2-c2cnc3[nH]cc(c3c2)-c2cnn(c2)CCCC1=O [Compound 41, (Z)-31,5-dimethyl-11H,21H,31H-5-aza-2(3,5)-pyrrolo[2,3-b]pyridina-1(4,1),3(4,3)-dipyrazolacyclononaphan-6-one]
Ambit profiling (various enzymes [1]): 79

CC(C)N1Cc2nn(C)cc2-c2cnc3[nH]cc(c3c2)-c2cn(nc2C(F)(F)F)CCCC1=O [Compound 45, (Z)-5-isopropyl-31-methyl-13-(trifluoromethyl)-11H,21H,31H-5-aza-2(3,5)-pyrrolo[2,3-b]pyridina-1(4,1),3(4,3)-dipyrazolacyclononaphan-6-one]
Ambit profiling: AXL (various enzymes [2]): 0 | Ambit profiling: DYRK1A (various enzymes [3]): 0.3 | Ambit profiling: MRCKA (various enzymes [4]): 100 | Ambit profiling: BRSK1 (various enzymes [5]): 100 | Ambit profiling: PAK6 (various enzymes [6]): 70 | Ambit profiling: PLK2 (various enzymes [7]): 90 | selectivity for DYRK1A (Ambit profiling, Table 4) (various enzymes [8]): not as selective for DYRK1A as compound 48 | Ambit profiling: EGFR(L747-T751del, Sins) (various enzymes [9]): 31

CN1Cc2nn(C)c(C#N)c2-c2cnc3[nH]cc(c3c2)-c2cn(nc2C(F)(F)F)CCCC1=O [Compound 48, (Z)-31,5-dimethyl-6-oxo-13-(trifluoromethyl)-11H,21H,31H-5-aza-2(3,5)-pyrrolo[2,3-b]pyridina-1(4,1),3(4,3)-dipyrazolacyclononaphane-35-carbonitrile]
IC50 (LRRK2 (G2019S)): > 0.1 µM | IC50 (various enzymes [10]): 0.212 µM | IC50 (various enzymes [11]): 0.354 µM | Ambit profiling (various enzymes [12]): 2.2 | Ambit profiling (various enzymes [13]): 46 | Ambit profiling (various enzymes [14]): 2.9 | Ambit profiling (various enzymes [15]): 94 | IC50 (various enzymes [16]): 0.173 µM | IC50 (various enzymes [17]): 0.087 µM | IC50 (various enzymes [18]): 0.83 µM

COc1c2c(nn1C)CN(C(C)C)C(=O)CCCn1cc(c(C(F)(F)F)n1)-c1c[nH]c3ncc-2cc13 [Compound 50, (Z)-5-isopropyl-35-methoxy-31-methyl-13-(trifluoromethyl)-11H,21H,31H-5-aza-2(3,5)-pyrrolo[2,3-b]pyridina-1(4,1),3(4,3)-dipyrazolacyclononaphan-6-one]
IC50 (DYRK1B): 0.146 µM | Ambit profiling: PAK8 [19]: 86 | Ambit profiling: FGR (various enzymes [20]): 5.2 | Ambit profiling: MRCKA (various enzymes [4]): 99 | Ambit profiling: BRSK1 (various enzymes [5]): 89 | Ambit profiling: PLK2 (various enzymes [7]): 95 | Ambit profiling: EGFR(L747-T751del, Sins) (various enzymes [9]): 22
